Experimental data published in article PMC11561307, “Ultra-inert lanthanide chelates as mass tags for multiplexed bioanalysis” (Nature Communications, 2024).

How the values were obtained:
[1] = Hydrolysis of ClickZip conjugates with model hexapeptide in HCl; type: physicochemical; conditions: 0.5 mM conjugate in 2 M HCl at 80 °C; HPLC 285 nm; Y value after 4 d
Procedure: While the acid-assisted dechelation of lanthanide DOTA chelates proceeds with a rate similar to hydrolysis of a peptide bond[24], the ultra-inert ClickZip chelates of Lu^III and near lanthanides should outlast complete hydrolysis of peptides and proteins. To test this, we prepared model hexapeptide conjugates with two ClickZip derivatives, HO2CPh{Ln} or HO2CBn{Ln}, which differed in their amide linkage to the peptide N-end (Fig. 6). Hydrolysis in 2 M HCl at 80 °C digested the peptide to individual amino acids; the chelates were cleaved from the peptide with no loss of the metal (Lu^III or Tm^III), or only small loss (5% for Y^III chelate).
Fig. 6 ClickZip and peptide bond stability comparison. Hydrolysis of ClickZip conjugates with model hexapeptide AYFHVG-NH2 connected by either aromatic or aliphatic amide bonds in strong acid. Conditions: 0.5 mM {Ln}PhCO-AYFHVG-NH2 or {Ln}BnCO-AYFHVG-NH2 in 2 M HCl at 80 °C. Analysis: λ = 285 nm (HPLC, H2O–MeCN, formic acid additive). […] The hydrolysis is faster for {Ln}BnCO-AYFHVG-NH2 species connected to the peptide via aliphatic amide moiety (n = 1) where HO2CBn{Ln} is formed quantitatively after 1 d. […] Nevertheless, prolonged reaction time led to quantitative formation of HO2CPh{Ln}. […]

[2] = Epimerization of BocCys{Lu} diastereomers followed by 1H NMR; type: physicochemical; conditions: Supp. Fig. 22B, chirality inversion
Description: The ClickZip chelates are inherently chiral, with defined rotation of the pendant arms (Λ or Δ) and of the four ethylene units in the cyclen ring (λλλλ or δδδδ), analogous to the DOTA system[15],[27],[34]. However, in contrast to DOTA, they only adopt enantiomeric Λλλλλ and Δδδδδ forms with twisted-square antiprismatic (TSA) arrangements (Fig. 4). To probe whether these enantiomers can interconvert, we modified {Lu} with L-cysteine residues to produce a pair of distinguishable diastereomers. […] The enantiomers of {M} can thus be regarded either as one or two compounds, depending on the time scale.
Fig. 4 Chirality of ClickZip chelates. Inherent chirality of the molecules is given by rotation of the pendant arms (Λ or Δ) and of the four ethylene units in the cyclen ring (λλλλ or δδδδ). In theory, four isomers are possible: two twisted square antiprismatic (TSA) enantiomers (Λλλλλ and Δδδδδ), and two square antiprismatic (SA) enantiomers (Δλλλλ and Λδδδδ). The ClickZip chelates exclusively adopt the TSA arrangements Λλλλλ and Δδδδδ, which were observed together in all solid-state structures as well as in solution. These two forms interconvert on the time scale of hours at 37 °C (Supplementary Fig. 22). Both enantiomers shown here were found in the crystal structure of [{Lu}]^+[ClO4]^−·5H2O. Thermal ellipsoids were set at 50% probability.
Supplementary Fig. 97. Synthesis of BocCys {Lu} and its epimer separation. In a glass vial (4 mL), [Cl{Lu}] +[T FA ]−·5.1H2O (4.0 mg; 4.2 µmol; 1.0 equiv.) was dissolved in DMSO (160 µL) followed by addition of N-Boc-cysteine (200 mM in DMSO; 31 µL; 6.2 µmol; 1.5 equiv.) and DIPEA (7.3 µL; 42 µmol; 10 equiv.) and the resulting solution was stirred for 16 h at 40 °C. Mixture (containing racemic mixture of BocCys {Lu} epimers) was then diluted with DMSO (0.5 mL) and filtered through syringe microfilter (RC). Filtrate was then directly purified by preparative HPLC […]
Fractions with epimer A (front part of the first eluting peak) and B (latter part of the second eluting peak) were quickly freezed and directly lyophilized. The resulting solids were dissolved in 500 μL of deuterated 50 mM MOPS/NaOD buffer (formal pH 7.4; obtained from MOPS/NaOH buffer of such pH by multiple evaporation/D2O resupply cycles). Epimer A (obtained in slightly higher epimeric purity than epimer B) was used for continuous 1H NMR epimerization study at 37 °C (Supplementary Fig. 22) while epimer B was incubated concurrently under identical conditions on heated magnetic stirrer. Conversion: ≥95% (based on Cl {Lu}).

{Y}PhCO-AYFHVG-NH2 [model hexapeptide conjugate with {Y} tag, aromatic amide]
loss (leak) of metal ion during hydrolysis of hexapeptide conjugate [1]: ~ 5%

O=C(CN1CC2CC(=O)Nc3cccc1c32)Nc1ccc2c(c1)C[C@]1(C2)C(=O)Nc2ncccc21 (single isomer, unassigned) [epimer A]
abundance, % of epimer ([2]; 0.757 h): 89.6%
abundance, % of epimer ([2]; 0.913 h): 83.6%
abundance, % of epimer ([2]; 1.220 h): 84.0%
abundance, % of epimer ([2]; 1.376 h): 90.7%
abundance, % of epimer ([2]; 1.532 h): 83.1%
abundance, % of epimer ([2]; 1.735 h): 83.8%
abundance, % of epimer ([2]; 1.891 h): 74.9%
abundance, % of epimer ([2]; 2.467 h): 74.2%
abundance, % of epimer ([2]; 2.641 h): 78.5%
abundance, % of epimer ([2]; 2.985 h): 70.9%
abundance, % of epimer ([2]; 3.611 h): 62.0%
abundance, % of epimer ([2]; 4.238 h): 64.6%
abundance, % of epimer ([2]; 4.864 h): 63.0%
abundance, % of epimer ([2]; 5.489 h): 63.7%
abundance, % of epimer ([2]; 6.704 h): 52.8%
abundance, % of epimer ([2]; 7.918 h): 58.7%
abundance, % of epimer ([2]; 9.132 h): 55.2%
abundance, % of epimer ([2]; 10.346 h): 50.5%
abundance, % of epimer ([2]; 11.560 h): 49.5%
abundance, % of epimer ([2]; 12.775 h): 50.6%
abundance, % of epimer ([2]; 13.988 h): 49.2%
abundance, % of epimer ([2]; 17.779 h): 50.3%
